The values that follow come from patent US10660967B2, “Curcumin conjugates and methods of use thereof” (priority 2016, dated 2020).

Converted amounts (≈) assume the structure as drawn. Where two headings read alike, the source gives them in different places.

In series [1] the test system is Salmonella typhi ATCC19430. Description: Antimicrobial MIC, agar dilution. The format is cell-based. The conditions noted are these: Salmonella enterica, read-out: Minimum inhibitory concentration (MIC).
Series [2] relates to Streptococcus pyogenes ATCC19615. Description: Antimicrobial MIC, agar dilution. For orientation: In agar dilution, organisms are placed on agar that contains the substance at set levels.
The subject of series [3] is Pseudomonas aeruginosa ATCC27853. The series is described as follows: Antimicrobial MIC, agar dilution.
Series [4] concerns Staphylococcus aureus ATCC25923. Description: Antimicrobial MIC, agar dilution. The conditions noted are these: ATCC25923, 18 h, read-out: Minimum inhibitory concentration (MIC).
Series [5] deals with gastric mucosa. Description: Ulcerogenic liability (ulcer index). The format is in vivo, albino mice. The protocol:
The ulcerogenic liability was investigated in albino mice using the standard method. […] The animals were fasted 18 h before drug administration. […] The control group animals were given saline solution only with few drops of Tween 80. […] The gastric mucosa was examined with a magnifying lens (10×) for the presence of lesions and erosions.
1. percentage incidence of ulcer divided by 10;
2. average number of ulcers per stomach; and
3. average severity of ulcers;

Series [6] relates to lipopolysaccharide-stimulated peritoneal macrophages. Description: Production of nitric oxide by lipopolysaccharide-stimulated peritoneal macrophages (Greiss reagent). The format is cell-based. On the set-up: Potency (%): % inhibition of nitric oxide production relative to lipopolysaccharide-stimulated macrophages: concentration or dose not given beside the values. The conditions noted are these: LPS-stimulated peritoneal macrophages. The protocol:
The effects of the synthesized curcumin conjugates on the production of nitric oxide (μM) by lipopolysaccharide-stimulated peritoneal macrophages were evaluated.
Two milliliters of macrophage cells were seeded in 12-well tissue culture plates in nitrite-free medium supplemented with 0.1% bovine serum albumin and incubated at 37° C. LPS±epinephrine, norepinephrine, or dopamine at […] concentrations was added to some wells. The concentrations of LPS used ranged from 0.5 to 10 ng/ml. After incubation for 24 h, supernatants were collected for measuring nitric oxide (NO) by spectrophotometry. The production of NO was determined from the accumulation of nitrite (NO2), the metabolic end product of NO metabolism, in the medium using the Greiss reagent. About equal volumes (100 μl) of sample and Greiss reagent (1:1 mixture of 1% sulfanilamide in 5% phosphoric acid, and 0.1% a-naphthylamine in distilled water) were mixed and incubated at room temperature for 15 min, and absorbance was measured at 532 nm on a spectrophotometer.

Series [7] deals with Candida albicans (local isolate). Description: Antimicrobial MIC, agar dilution. The conditions noted are these: Candida albicans (local isolate).
In series [8] the test system is PHA-stimulated splenocytes. Description: Proliferative response of PHA-stimulated splenocytes (MTT assay). The format is cell-based. The protocol:
Immunomodulatory effects of the synthesized curcumin conjugates on the proliferative response of PHA-stimulated splenocytes were evaluated. The effect of curcumin and its amino acid conjugates on splenocyte viability and proliferation in response to a T cell miotgen (Phytohaemagglutinin; PHA) was evaluated using the MTT assay. Freshly prepared splenocytes (1×10^6 cells/200 μl/well) were cultured in a 96-well U-bottom microtiter plate (Nunc) in complete medium. Cells were treated with tested compounds at a final concentration of 10 μM, vehicle (DMSO) or left untreated in triplicate then incubated at 37° C. and 5% CO2. When testing the immunoregulatory effects of the compounds on splenocyte stimulation, PHA (5 μg/ml) was added to the culture media to induce T cell proliferation. The proliferative response to PHA+vehicle and vehicle alone served as controls. After 72 hr, media were removed after pelleting the cells by centrifugation and MTT salt solution (5 mg/ml) was added into each well then incubated at 37° C. for 4 h. Afterwards, formazan crystals were dissolved by adding 150 μl 10% sodium dodecyl sulfate (SDS). Absorbance was measured with a spectrophotometer at 570 nm and reference wavelength of 690 nm.
Splenocyte stimulation index was determined as the ratio of O.D. values in tested compounds versus vehicle control cultures.

The test system of series [9] is carrageenan induced paw edema. The series is described as follows: Anti-inflammatory activity: acute carrageenan induced paw edema in rats. It is filed as in vivo, Wister rats. The conditions noted are these: 10 mg kg^−1 indomethacin mol equivalent; for % inhibition of edema / Mean edema thickness: intraperitoneally; for Mean edema thickness: mean ± SE; for Potency (% inhibition of edema relative to that of indomethacin reference standard): at 4 h effect. The essentials: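 Wistar rats (120–150 g, n=6/group) received subplantar 1% carrageenan in the right hind paw, and DMSO-vehicle animals served as controls. Results are given as % inhibition of edema thickness versus control.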

Where [10] appears, read: ATCC19615, 18 h, read-out: Minimum inhibitory concentration (MIC).
[11] abbreviates: ATCC19615, read-out: Minimum inhibitory concentration (MIC).
The mark [12] stands for this setting: ATCC27853, 18 h, read-out: Minimum inhibitory concentration (MIC).
The mark [13] stands for this setting: ATCC27853, read-out: Minimum inhibitory concentration (MIC).
Where [14] appears, read: both, albino, mouse, in vivo, po, 10 mg/kg, 3 days.
The mark [15] stands for this setting: orally, three successive days, 10 mg/kg indomethacin mol equivalent.

As to `O=C(O)c1cn(C2CC2)c2cc(N3CCNCC3)c(F)cc2c1=O` [Ciprofloxacin, reference compound], the MIC in series [1] (18 h) was 2.4 µg/mL; in [1], 7.24 µM; in series [2] (setting [10]), 1250 µg/mL; in series [2] (setting [11]), 3770 µM; in series [3] (setting [12]) it was 4.8 µg/mL; in [3] (setting [13]), 14.5 µM. Moreover, the MIC in series [4] amounted to 1250 µg/mL (≈ 3.77 mM).
On to `CC(C)Cc1ccc(C(C)C(=O)O)cc1` (stereo not drawn) [Ibuprofen, 2-(4-isobutylphenyl)propanoic acid, reference compound], for which, in [5] (setting [14]), the “Average of ulcer number” value is recorded as 0.33, the “Average severity of ulcer” value came out at 0.67 and the “Number of animals with ulcer” value is reported as 2/6. The “% Incidence of ulcer divided by 10” value in series [5] (setting [15]) was 3.33.
Regarding `COc1ccc2c(c1)c(CC(=O)O)c(C)n2C(=O)c1ccc(Cl)cc1` [Indomethacin, 2-(1-(4-chlorobenzoyl)-5-methoxy-2-methyl-1H-indol-3-yl)acetic acid, reference compound], in series [5] (setting [14]), the “% Incidence of ulcer divided by 10” value was found to be 10, the “Average of ulcer number” value amounted to 2 and the “Number of animals with ulcer” value was 6/6. Also, the “Average severity of ulcer” value in [5] (setting [15]) is reported as 1.67. Also, the Ulcer index in series [5] (sum of the three values, orally, three successive days, 10 mg/kg indomethacin mol equivalent) is reported as 13.67.
For “lipopolysaccharide [LPS, reference compound]”, in series [6], the “Potency (%): % inhibition of nitric oxide production relative to lipopolysaccharide-stimulated macrophages” value is reported as 0.00%. Besides, in [6] (24 h, nitrite by Greiss reagent), the “Nitric oxide (nitrite) concentration, μM (average ± SD)” value was determined as 27.31 ± 2.56 µM.
As to `CCn1cc(C(=O)O)c(=O)c2cc(F)c(N3CCNCC3)cc21` [Norfloxacin, reference compound], the MIC was determined as 2.4 µg/mL in series [1] (18 h); 7.52 µM in series [1]; 625 µg/mL in series [2] (setting [10]); 1960 µM in series [2] (setting [11]); 4.8 µg/mL in [3] (setting [12]); 15 µM in series [3] (setting [13]). Further, in series [4], the MIC came to 1250 µg/mL (≈ 3.91 mM).
For `C[C@@H]1[C@H](O)[C@@H](C)/C=C/C=C/C=C/C=C/C=C/C=C/C=C/[C@H](O[C@@H]2O[C@H](C)[C@@H](O)[C@H](N)[C@@H]2O)C[C@@H]2O[C@](O)(C[C@@H](O)C[C@@H](O)[C@H](O)CC[C@@H](O)C[C@@H](O)CC(=O)O[C@H]1C)C[C@H](O)[C@H]2C(=O)O` [Amphotericin B, reference compound], the “Minimum inhibitory concentration (MIC)” value in series [7] (37° C., 18 h) was 0.39 µg/mL (≈ 0.000422 mM); in series [7] (value in brackets) it was “(0.422) μM”.
On to “Phytohaemagglutinin [PHA, reference compound]”, for which the “Stimulation Index (average ± SD)” value in [8] (PHA 5 μg/ml, 72 hr, compounds at 5 μM (method says 10 μM), ratio of O.D. versus vehicle control) amounted to 2.78 ± 0.28. For the same compound, the “splenocyte proliferation, fold relative to untreated control cells” value in [8] (in the presence of PHA, text of b265) is 2.76 fold.
Regarding `COc1cc(/C=C/C(=O)CC(=O)/C=C/c2ccc(OC(=O)[C@H](CC(C)C)NC(=O)OCc3ccccc3)c(OC)c2)ccc1OC(=O)[C@H](CC(C)C)NC(=O)OCc1ccccc1` [Compound 9], the “% inhibition of edema” value is 34% in [9] (1 h); 10% in series [9] (2 h); 10% in series [9] (3 h); 11% in series [9] (4 h); 1% in [9] (24 h). Moreover, the Mean edema thickness turned out to be 1.59 ± 0.18 mm in series [9] (1 h); 1.85 ± 0.21 mm in series [9] (2 h); 1.61 ± 0.18 mm in series [9] (3 h); 1.25 ± 0.09 mm in series [9] (4 h); 0.82 ± 0.08 mm in series [9] (24 h). In addition, the “Potency (% inhibition of edema relative to that of indomethacin reference standard)” value in [9] was determined as 13.
With `COc1cc(/C=C/C(=O)CC(=O)/C=C/c2ccc(OC(=O)C(C)NC(=O)OCc3ccccc3)c(OC)c2)ccc1OC(=O)C(C)NC(=O)OCc1ccccc1` (stereo not drawn) [Compound 7], the “% inhibition of edema” value is given as 72% in [9] (1 h); 87% in [9] (2 h); 97% in series [9] (3 h); 100% in [9] (4 h); 100% in series [9] (24 h). The Mean edema thickness in series [9] (1 h) turned out to be 0.67 ± 0.09 mm; in [9] (2 h), 0.26 ± 0.07 mm; in series [9] (3 h), 0.05 ± 0.02 mm; in series [9] (4 h), 0.00 ± 0.00 mm; in series [9] (24 h), 0.00 ± 0.00 mm. The “Potency (% inhibition of edema relative to that of indomethacin reference standard)” value in [9] is 115.
`COc1cc(/C=C/C(=O)CC(=O)/C=C/c2ccc(OC(=O)[C@@H](CCSC)NC(=O)OC(C)(C)C)c(OC)c2)ccc1OC(=O)[C@@H](CCSC)NC(=O)OC(C)(C)C` [Compound 29]: the “% inhibition of edema” value amounted to 58% in series [9] (1 h); 69% in [9] (2 h); 74% in series [9] (3 h); 89% in series [9] (4 h); 41% in series [9] (24 h). In addition, the Mean edema thickness is given as 1.01 ± 0.14 mm in series [9] (1 h); 0.63 ± 0.11 mm in series [9] (2 h); 0.47 ± 0.08 mm in series [9] (3 h); 0.15 ± 0.06 mm in series [9] (4 h); 0.49 ± 0.09 mm in series [9] (24 h). Also, in [9], the “Potency (% inhibition of edema relative to that of indomethacin reference standard)” value stood at 102.
In the case of `COc1cc(/C=C/C(=O)CC(=O)/C=C/c2ccc(OC(=O)[C@@H](N)CCSC)c(OC)c2)ccc1OC(=O)[C@@H](N)CCSC.Cl.Cl` [Compound 39], the “% inhibition of edema” value in series [9] (1 h) is listed as 64%; in series [9] (2 h) it was 70%; in series [9] (3 h) it was 73%; in series [9] (4 h) it was 97%; in series [9] (24 h), 36%. Moreover, the Mean edema thickness was 0.86 ± 0.13 mm in series [9] (1 h); 0.62 ± 0.11 mm in [9] (2 h); 0.49 ± 0.07 mm in [9] (3 h); 0.04 ± 0.01 mm in [9] (4 h); 0.53 ± 0.03 mm in series [9] (24 h). For the same compound, the “Potency (% inhibition of edema relative to that of indomethacin reference standard)” value in series [9] was determined as 111.
Consider `COc1cc(/C=C/C(=O)CC(=O)/C=C/c2ccc(OC(=O)C(C)N)c(OC)c2)ccc1OC(=O)C(C)N.Cl.Cl` (stereo not drawn) [Compound 36], for which the “% inhibition of edema” value in series [9] (1 h) is recorded as 54%; in series [9] (2 h), 54%; in series [9] (3 h), 55%; in series [9] (4 h), 84%; in [9] (24 h) it was 28%. Besides, the Mean edema thickness is reported as 1.11 ± 0.08 mm in [9] (1 h); 0.94 ± 0.09 mm in series [9] (2 h); 0.81 ± 0.05 mm in [9] (3 h); 0.22 ± 0.02 mm in series [9] (4 h); 0.60 ± 0.06 mm in [9] (24 h). The “Potency (% inhibition of edema relative to that of indomethacin reference standard)” value in series [9] is on record as 97.
